Molecular target: T1, CAD (GFP-CAD; assayed as GFP-CAD-D1371A) (Homo sapiens, UniProt P27708, D1371A)
T1 construct: full-length CAD subcloned into Not I/Bgl II sites of pEGFP-N1-His (GFP fusion, GFP kept); expressed in HEK-293T; RIPA lysate diluted 150x in MST buffer, not purified
Assay: microscale thermophoresis, GFP fusion in diluted HEK-293T lysate
Type: binding
Excerpt: microscale thermophoresis, GFP fusion in diluted HEK-293T lysate on CAD (GFP-CAD; assayed as GFP-CAD-D1371A) | direct interaction between RMY-186 and CAD-D1371A protein in vitro, with a Kd of […]

T1 sequence (P27708 whole entry D1371A, the tested form may be a part): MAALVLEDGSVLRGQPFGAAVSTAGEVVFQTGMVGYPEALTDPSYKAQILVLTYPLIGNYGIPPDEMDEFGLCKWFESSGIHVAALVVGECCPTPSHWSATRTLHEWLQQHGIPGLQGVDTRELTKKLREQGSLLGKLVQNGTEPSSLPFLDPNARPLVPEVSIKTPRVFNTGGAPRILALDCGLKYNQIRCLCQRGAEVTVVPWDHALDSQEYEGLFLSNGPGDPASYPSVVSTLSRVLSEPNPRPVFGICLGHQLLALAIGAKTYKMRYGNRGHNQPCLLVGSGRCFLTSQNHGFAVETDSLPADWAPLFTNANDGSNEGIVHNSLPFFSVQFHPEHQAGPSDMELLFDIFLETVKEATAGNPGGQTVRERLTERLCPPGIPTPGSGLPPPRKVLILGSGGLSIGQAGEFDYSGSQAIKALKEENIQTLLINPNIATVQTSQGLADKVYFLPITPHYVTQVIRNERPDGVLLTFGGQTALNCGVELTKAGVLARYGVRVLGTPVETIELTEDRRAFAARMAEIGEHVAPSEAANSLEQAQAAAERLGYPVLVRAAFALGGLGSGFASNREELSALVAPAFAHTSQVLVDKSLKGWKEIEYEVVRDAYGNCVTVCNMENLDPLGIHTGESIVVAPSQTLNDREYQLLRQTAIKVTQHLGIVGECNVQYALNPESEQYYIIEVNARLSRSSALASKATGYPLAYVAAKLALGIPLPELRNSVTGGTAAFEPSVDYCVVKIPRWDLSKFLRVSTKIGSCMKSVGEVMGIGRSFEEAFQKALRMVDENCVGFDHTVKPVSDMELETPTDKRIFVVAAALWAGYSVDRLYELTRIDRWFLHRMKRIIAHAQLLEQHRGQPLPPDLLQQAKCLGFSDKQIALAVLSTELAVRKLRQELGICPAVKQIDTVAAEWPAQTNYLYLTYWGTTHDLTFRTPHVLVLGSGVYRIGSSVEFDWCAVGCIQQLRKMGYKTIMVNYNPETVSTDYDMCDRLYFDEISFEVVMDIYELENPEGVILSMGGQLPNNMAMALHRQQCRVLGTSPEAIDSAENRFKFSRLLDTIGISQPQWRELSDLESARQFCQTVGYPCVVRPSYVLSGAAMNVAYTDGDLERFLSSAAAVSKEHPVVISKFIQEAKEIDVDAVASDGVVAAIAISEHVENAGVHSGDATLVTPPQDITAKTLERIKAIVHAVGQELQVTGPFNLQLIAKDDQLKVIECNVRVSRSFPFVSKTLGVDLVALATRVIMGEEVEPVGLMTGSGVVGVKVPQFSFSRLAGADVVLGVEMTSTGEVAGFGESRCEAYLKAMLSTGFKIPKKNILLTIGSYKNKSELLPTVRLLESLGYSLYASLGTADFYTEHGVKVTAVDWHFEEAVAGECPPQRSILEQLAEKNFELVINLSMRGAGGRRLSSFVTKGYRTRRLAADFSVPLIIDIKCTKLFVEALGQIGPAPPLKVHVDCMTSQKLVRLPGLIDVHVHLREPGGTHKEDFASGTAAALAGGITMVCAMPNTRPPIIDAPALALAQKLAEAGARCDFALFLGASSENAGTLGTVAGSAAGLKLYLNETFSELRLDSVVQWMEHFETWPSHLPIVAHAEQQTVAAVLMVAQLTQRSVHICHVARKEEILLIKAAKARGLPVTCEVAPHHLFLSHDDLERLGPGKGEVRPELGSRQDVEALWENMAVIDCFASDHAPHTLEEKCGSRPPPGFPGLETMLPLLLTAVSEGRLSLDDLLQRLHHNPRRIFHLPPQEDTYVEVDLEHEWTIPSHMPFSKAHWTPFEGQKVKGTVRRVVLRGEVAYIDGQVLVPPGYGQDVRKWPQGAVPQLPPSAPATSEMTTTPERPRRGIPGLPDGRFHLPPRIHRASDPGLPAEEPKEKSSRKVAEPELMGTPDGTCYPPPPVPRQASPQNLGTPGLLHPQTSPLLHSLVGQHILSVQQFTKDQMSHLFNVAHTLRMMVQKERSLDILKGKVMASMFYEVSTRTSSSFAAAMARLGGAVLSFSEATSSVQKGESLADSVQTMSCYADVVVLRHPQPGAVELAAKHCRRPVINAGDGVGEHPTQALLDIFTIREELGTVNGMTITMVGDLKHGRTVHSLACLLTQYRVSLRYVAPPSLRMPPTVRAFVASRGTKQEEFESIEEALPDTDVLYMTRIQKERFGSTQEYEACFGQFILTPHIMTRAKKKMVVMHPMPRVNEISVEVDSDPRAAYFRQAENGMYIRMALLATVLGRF

SMILES: O=c1c(O)c(N2CCN(Cc3cccc(Br)c3)CC2)oc2ccccc12 [compound 9, 2-(4-(3-bromobenzyl)-piperazin-1-yl)-3-hydroxy-4H-chromen-4-one]
- Kd: 6.78 µM

Reference: paper PMC12123037, “Cleavage of CAD by caspase-3 determines the cancer cell fate during chemotherapy” (Nature Communications, 2025)
